The text below walks through data of paper PMC12563681, “Cecytb-2, a Cytochrome b561 Homolog, Functions as an Ascorbate-Specific Transmembrane Ferric Reductase at Intestinal Lumens of Caenorhabditis elegans” (Biomolecules, 2025).

Assay [1] concerns the target T1, Cecytb-2 (Cecytb-2-H6) (Caenorhabditis elegans, UniProt O16271).
T1 sequence (O16271 1-251): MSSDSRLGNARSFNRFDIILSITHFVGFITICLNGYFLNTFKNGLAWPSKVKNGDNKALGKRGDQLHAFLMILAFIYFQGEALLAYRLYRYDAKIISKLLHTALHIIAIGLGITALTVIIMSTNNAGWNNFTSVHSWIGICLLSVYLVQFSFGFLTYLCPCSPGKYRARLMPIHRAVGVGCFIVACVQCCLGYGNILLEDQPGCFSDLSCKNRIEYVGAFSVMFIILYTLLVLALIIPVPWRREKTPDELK
Put plainly: stopped-flow heme reduction at […] nm. The note with it: electron donor; pH 7.0, 1% octyl glucoside, about 25 °C. More on the design: gene CELE_F39G3.5; full length, 251 residues, 28,127 Da native; expressed in Pichia pastoris GS115, purified from microsomes in octyl glucoside; Ser2, Ser3 at N-terminus; two b hemes. Type of assay: biochemical.

For assay [2], the target named is T1, Cecytb-2 (Cecytb-2-H6). Put plainly: pulse radiolysis, heme oxidation at […] nm. More on the design: gene CELE_F39G3.5. Conditions: electron acceptor; 10 mM AsA present, pH 7.0, 1% octyl glucoside.

For `O=C1O[C@H]([C@@H](O)CO)C(O)=C1O` [AsA], the “stopped-flow heme reduction at 426 nm” value on Cecytb-2 (Cecytb-2-H6) [1] was “second-order rate constant (k1) for the heme reduction with AsA was estimated”.
On to `[O]C1=C(O)[C@@H]([C@@H](O)CO)OC1=O` [MDA radical], for which, at Cecytb-2 (Cecytb-2-H6) [2], the “pulse radiolysis, heme oxidation at 435 nm” value is recorded as “heme oxidation of Cecytb-2-H6 by the generated MDA radical”.
